{
  "source": "patent US8999967B2",
  "about": "“Tricyclic fused ring inhibitors of hepatitis C” (Presidio Pharmaceuticals, Inc., priority 2010, dated 2015)",
  "data": [
    {"tested_on": "HCV 1b_Huh-Luc/Neo-ET cell line (genotype 1b replicon in Huh 7 cells)", "assay": "HCV replicon assay (luciferase readout)", "type": "cell-based", "conditions": "Hepatitis C virus, HCV 1b replicon in Huh 7 cells, 72 h incubation, EC50 range class, read-out: Inhibition of HCV genotype 1b", "description": "Biological activity of the compounds of the invention was determined using an HCV replicon assay. The HCV 1b_Huh-Luc/Neo-ET cell line persistently expressing a bicistronic genotype 1b replicon in Huh 7 cells was obtained from ReBLikon GMBH. This cell line was used to test compound inhibition using luciferase enzyme activity readout as a measurement of compound inhibition of replicon levels.\nOn Day 1 (the day after plating cells), each compound is added in triplicate to the cells. Plates are incubated for 72 h prior to determining luciferase levels. Enzyme activity was measured using a Bright-Glo Kit (cat. number E2620) manufactured by Promega Corporation. The following equation was used to generate a percent control value for each compound. % Control=(Compound Luciferase Level/Control Luciferase Level)*100\nThe EC50 value was determined using GraphPad Prism and the following equation: Y=Bottom asymptote+(Top asymptote-Bottom asymptote)/(1+10^((Log EC50−X)*HillSlope))\nEC50 values of compounds are determined several times in the replicon assay to generate average EC50 values. […]", "units": {"EC50": "nM"}, "values": [
      {"compound": "COC(=O)N[C@H](C(=O)N1CCC[C@H]1c1ncc(-c2ccc3c(c2)Cc2ccc(-c4cnc([C@@H]5CCCN5C(=O)[C@@H](NC(=O)OC)[C@@H](C)OC)[nH]4)cc2O3)[nH]1)[C@@H](C)OC", "note": "[Compound 30]", "EC50": "< 1"},
      {"compound": "CC[C@H](C)[C@H](NC(=O)OC)C(=O)N1CCC[C@H]1c1ncc(-c2ccc3c(c2)Cc2ccc(-c4cnc([C@@H]5CCCN5C(=O)[C@@H](NC(=O)OC)[C@@H](C)CC)[nH]4)cc2O3)[nH]1", "note": "[Compound 31]", "EC50": "< 1"},
      {"compound": "COC(=O)N[C@H](C(=O)N1CCC[C@H]1c1ncc(-c2ccc3c(c2)Cc2ccc(-c4cnc([C@@H]5CCCN5C(=O)[C@@H](NC(=O)OC)C5CCCC5)[nH]4)cc2O3)[nH]1)C1CCCC1", "note": "[Compound 32]", "EC50": "< 1"},
      {"compound": "COC(=O)N[C@H](C(=O)N1CCC[C@H]1c1ncc(-c2ccc3c(c2)Oc2ccc(-c4cnc([C@@H]5CCCN5C(=O)[C@@H](NC(=O)OC)C5CCCC5)[nH]4)cc2O3)[nH]1)C1CCCC1", "note": "[Compound 33]", "EC50": "< 1"},
      {"compound": "COC(=O)N[C@H](C(=O)N1CCC[C@H]1c1ncc(-c2ccc3c(c2)Oc2ccc(-c4cnc([C@@H]5CCCN5C(=O)[C@@H](NC(=O)OC)[C@@H](C)OC)[nH]4)cc2O3)[nH]1)[C@@H](C)OC", "note": "[Compound 34]", "EC50": "< 1"},
      {"compound": "COC(=O)N[C@H](C(=O)N1CCC[C@H]1c1ncc(-c2ccc3c(c2)Oc2ccc(-c4cnc([C@@H]5CCCN5C(=O)[C@@H](NC(=O)OC)C5CCOCC5)[nH]4)cc2O3)[nH]1)C1CCOCC1", "note": "[Compound 35]", "EC50": "< 1"},
      {"compound": "COC(=O)N[C@H](C(=O)N1CSC[C@H]1c1ncc(-c2ccc3c(c2)Oc2ccc(-c4cnc([C@@H]5CSCN5C(=O)[C@@H](NC(=O)OC)C(C)C)[nH]4)cc2O3)[nH]1)C(C)C", "note": "[Compound 36]", "EC50": "< 1"},
      {"compound": "COC(=O)N[C@@H](C(=O)N1CSC[C@H]1c1ncc(-c2ccc3c(c2)Oc2ccc(-c4cnc([C@@H]5CSCN5C(=O)[C@H](NC(=O)OC)c5ccccc5)[nH]4)cc2O3)[nH]1)c1ccccc1", "note": "[Compound 37]", "EC50": "< 1"},
      {"compound": "COC(=O)N[C@@H](C(=O)N[C@@H](C)c1ncc(-c2ccc3c(c2)Oc2ccc(-c4cnc([C@H](C)NC(=O)[C@H](NC(=O)OC)c5ccccc5)[nH]4)cc2O3)[nH]1)c1ccccc1", "note": "[Compound 38]", "EC50": "< 1"},
      {"compound": "COC(=O)N[C@H](C(=O)N[C@@H](C)c1ncc(-c2ccc3c(c2)Oc2ccc(-c4cnc([C@H](C)NC(=O)[C@@H](NC(=O)OC)C(C)C)[nH]4)cc2O3)[nH]1)C(C)C", "note": "[Compound 39]", "EC50": "< 1"},
      {"compound": "COC(=O)N[C@H](C(=O)N1CCC[C@H]1c1ncc(-c2ccc3c(c2)Cc2cc(F)c(-c4cnc([C@@H]5CCCN5C(=O)[C@@H](NC(=O)OC)[C@@H](C)OC)[nH]4)cc2O3)[nH]1)[C@@H](C)OC", "note": "[Compound 40]", "EC50": "< 1"},
      {"compound": "CC[C@H](C)[C@H](NC(=O)OC)C(=O)N1CCC[C@H]1c1ncc(-c2ccc3c(c2)Cc2cc(F)c(-c4cnc([C@@H]5CCCN5C(=O)[C@@H](NC(=O)OC)[C@@H](C)OC)[nH]4)cc2O3)[nH]1", "note": "[Compound 41]", "EC50": "< 1"},
      {"compound": "COC(=O)N[C@H](C(=O)N1CCC[C@H]1c1ncc(-c2ccc3c(c2)Cc2cc(F)c(-c4cnc([C@@H]5CCCN5C(=O)[C@@H](NC(=O)OC)[C@@H](C)OC)[nH]4)cc2O3)[nH]1)C1CCOCC1", "note": "[Compound 42]", "EC50": "< 1"},
      {"compound": "COC[C@H](NC(=O)OC)C(=O)N1CCC[C@H]1c1ncc(-c2ccc3c(c2)Cc2cc(F)c(-c4cnc([C@@H]5CCCN5C(=O)[C@@H](NC(=O)OC)[C@@H](C)OC)[nH]4)cc2O3)[nH]1", "note": "[Compound 43]", "EC50": "< 1"},
      {"compound": "COC(=O)N[C@H](C(=O)N1CCC[C@H]1c1ncc(-c2cc3c(cc2F)Cc2cc(-c4cnc([C@@H]5CCCN5C(=O)[C@@H](NC(=O)OC)C5CCOCC5)[nH]4)ccc2O3)[nH]1)C(C)C", "note": "[Compound 44]", "EC50": "< 1"},
      {"compound": "COC[C@H](NC(=O)OC)C(=O)N1CCC[C@H]1c1ncc(-c2ccc3c(c2)Cc2cc(F)c(-c4cnc([C@@H]5CCCN5C(=O)[C@@H](NC(=O)OC)C(C)C)[nH]4)cc2O3)[nH]1", "note": "[Compound 45]", "EC50": "< 1"},
      {"compound": "CC[C@H](C)[C@H](NC(=O)OC)C(=O)N1CCC[C@H]1c1ncc(-c2ccc3c(c2)Oc2ccc(-c4cnc([C@@H]5CCCN5C(=O)[C@@H](NC(=O)OC)[C@@H](C)CC)[nH]4)cc2O3)[nH]1", "note": "[Compound 46]", "EC50": "< 1"},
      {"compound": "COC(=O)N[C@H](C(=O)N1CCCC[C@H]1c1ncc(-c2ccc3c(c2)Oc2ccc(-c4cnc([C@@H]5CCCCN5C(=O)[C@@H](NC(=O)OC)C(C)C)[nH]4)cc2O3)[nH]1)C(C)C", "note": "[Compound 47]", "EC50": "< 1"},
      {"compound": "COC(=O)N[C@@H](C(=O)N1CCCC[C@H]1c1ncc(-c2ccc3c(c2)Oc2ccc(-c4cnc([C@@H]5CCCCN5C(=O)[C@H](NC(=O)OC)c5ccccc5)[nH]4)cc2O3)[nH]1)c1ccccc1", "note": "[Compound 48]", "EC50": "< 1"},
      {"compound": "COC(=O)N[C@H](C(=O)N1CCC[C@H]1c1ncc(-c2ccc3oc4cc(-c5cnc([C@@H]6CCCN6C(=O)[C@@H](NC(=O)OC)C(C)C)[nH]5)c(Cl)cc4c(=O)c3c2)[nH]1)C(C)C", "note": "[Compound 49]", "EC50": "< 1"},
      {"compound": "COC(=O)N[C@H](C(=O)N1CCC[C@H]1c1ncc(-c2ccc3oc4cc(-c5cnc([C@@H]6CCCN6C(=O)[C@@H](NC(=O)OC)[C@@H](C)OC)[nH]5)c(Cl)cc4c(=O)c3c2)[nH]1)[C@@H](C)OC", "note": "[Compound 50]", "EC50": "< 1"},
      {"compound": "CC[C@H](C)[C@H](NC(=O)OC)C(=O)N1CCC[C@H]1c1ncc(-c2ccc3oc4cc(-c5cnc([C@@H]6CCCN6C(=O)[C@@H](NC(=O)OC)[C@@H](C)CC)[nH]5)c(Cl)cc4c(=O)c3c2)[nH]1", "note": "[Compound 51]", "EC50": "< 1"},
      {"compound": "COC(=O)N[C@H](C(=O)N1CCC[C@H]1c1ncc(-c2ccc3oc4cc(-c5cnc([C@@H]6CCCN6C(=O)[C@@H](NC(=O)OC)C6CCOCC6)[nH]5)c(Cl)cc4c(=O)c3c2)[nH]1)C1CCOCC1", "note": "[Compound 52]", "EC50": "< 1"},
      {"compound": "CC[C@H](C)[C@H](NC(=O)OC)C(=O)N1CCC[C@H]1c1ncc(-c2ccc3c(c2)Cc2cc(F)c(-c4cnc([C@@H]5CCCN5C(=O)[C@@H](NC(=O)OC)[C@@H](C)CC)[nH]4)cc2O3)[nH]1", "note": "[Compound 53]", "EC50": "< 1"},
      {"compound": "C=CC[C@H](NC(=O)OC)C(=O)N1CCC[C@H]1c1ncc(-c2ccc3c(c2)Oc2ccc(-c4cnc([C@@H]5CCCN5C(=O)[C@H](CC=C)NC(=O)OC)[nH]4)cc2O3)[nH]1", "note": "[Compound 55]", "EC50": "< 1"},
      {"compound": "C#CC[C@H](NC(=O)OC)C(=O)N1CCC[C@H]1c1ncc(-c2ccc3c(c2)Oc2ccc(-c4cnc([C@@H]5CCCN5C(=O)[C@H](CC#C)NC(=O)OC)[nH]4)cc2O3)[nH]1", "note": "[Compound 56]", "EC50": "< 1"},
      {"compound": "[2H]C([2H])([2H])C([2H])(C([2H])([2H])[2H])[C@]([2H])(NC(=O)OC)C(=O)N1CCC[C@H]1c1ncc(-c2ccc3c(c2)Oc2ccc(-c4cnc([C@@H]5CCCN5C(=O)[C@@]([2H])(NC(=O)OC)C([2H])(C([2H])([2H])[2H])C([2H])([2H])[2H])[nH]4)cc2O3)[nH]1", "note": "[Compound 57]", "EC50": "< 1"},
      {"compound": "COC(=O)N[C@@H](C(=O)N1CCC[C@H]1c1ncc(-c2ccc3oc4cc(-c5cnc([C@@H]6CCCN6C(=O)[C@H](NC(=O)OC)c6ccccc6)[nH]5)c(Cl)cc4c(=O)c3c2)[nH]1)c1ccccc1", "note": "[Compound 58]", "EC50": "< 1"},
      {"compound": "CC[C@H](C)[C@H](NC(=O)OC)C(=O)N1CCC[C@H]1c1ncc(-c2cc3c(cc2F)Cc2cc(-c4cnc([C@@H]5CCCN5C(=O)[C@@H](NC(=O)OC)C5CCOCC5)[nH]4)ccc2O3)[nH]1", "note": "[Compound 59]", "EC50": "< 1"},
      {"compound": "CC[C@H](C)[C@H](NC(=O)OC)C(=O)N1CCC[C@H]1c1ncc(-c2cc3c(cc2F)Cc2cc(-c4cnc([C@@H]5CCCN5C(=O)[C@H](COC)NC(=O)OC)[nH]4)ccc2O3)[nH]1", "note": "[Compound 60]", "EC50": "< 1"}
    ]}
  ]
}
